The values below come from patent publication US20190216815A1, “COMBINATION THERAPY COMPRISING A POLYUNSATURATED KETONE AND A FOLIC ACID PARTNER” (Avexxin AS, priority 2016, published 2019).

Holding throughout (assay type): cell-based
Experiment [1] concerns HaCaT cells. In words: Resazurin assay, HaCaT keratinocyte proliferation and viability. Conditions: Homo sapiens, 10 μM MTX alone, 24 hours of treatment, read-out: reduction of proliferation and viability of HaCaT cells. How it is done:
The spontaneously immortalized, nontumorigenic skin keratinocyte cell line HaCaT was maintained in DMEM supplemented with 5% (v/v) FBS, 0.3 mg/ml glutamine and 0.1 mg/ml gentamicin at 37° C. with 5% CO2 in a humidified atmosphere. Subculture using trypsin-EDTA was performed every 3-4 days with split ratio of 1:3-1:4 to ensure actively proliferating cells. Cells were seeded in 96 well plates in fully supplemented medium at a density of 2500 cells per well. Following 72 hours of cultivation, the cells were starved of serum in 0.25% FBS/DMEM overnight to halt proliferation, synchronize and to increase cell sensitivity to treatment. On day 4, the cells were treated with cPLA2α inhibitor Compound A1 and folic acid analogue methotrexate hydrate (MTX) (Sigma Aldrich #A6770) and left to incubate for […] in incubator at 37° C. with 5% CO2 in a humidified atmosphere before fluorescence was read at 544 nm excitation and 590 nm emission wavelength. The cells were observed under the microscope to evaluate possible morphology changes and signs of stress before addition of resazurin. The experiments were performed in series of 8 wells per treatment and repeated 2-3 times.
For orientation: Resazurin is reduced to fluorescent resorufin, in cell work by metabolically active cells.

The test system of experiment [2] is LPS-induced production of TNF in PBMC. In words: LPS-induced TNF production in PBMC (ELISA). The note with it: 1 μM MTX alone, 72 hours, 10 ng/mL LPS. How it is done:
(§1) Blood was recruited from healthy donors at St. Olays Hospital HF, the Bloodbank. Peripheral blood mononuclear cells (PBMC) were isolated using SepMate™ separation tubes with LymphoPrep density gradient medium according to the STEMCELL Technology recommendations. For experiments, 1×10^6 cells/well/1 mL RPMI medium supplemented with 5% FBS, 0.3 mg/ml glutamine and 0.1 mg/ml gentamicin with or without inhibitors Compound A1, methotrexate hydrate (MTX) (Sigma-Aldrich, #A6770) or a combination of the two inhibitors, prior to the addition of lipopolysaccharides as a potent inducer of inflammation (LPS from E. coli 026:B6 γ-irradiated, Sigma-Aldrich, #L2654). Following treatment (72 hrs., 37° C., 5% CO2), the cell suspensions were centrifuged to isolate the supernatant from the cell fraction. Samples were stored at −80° C. until analysis.
(§2) Cell supernatant samples were analyzed by enzyme-linked immunosorbent assay (EIA) for PGE2 (Cayman #514010), TNF and IL1-β (RnD Systems, DuoSet #DY210 and #DY201) according to the manufacturers protocols. Cell supernatants were assayed at dilutions 1:1 for TNF; 1:10 for IL1-β and 1:100 for PGE2, except supernatants from untreated PBMC (negative control) that were assayed undiluted in all assays. Supernatants were hybridized over-night incubation, enzymatic conversion of substrate were read at OD420 nm. […]
For orientation: In an ELISA, binding on a coated surface is turned into a signal by an enzyme label.

The test system of experiment [3] is LPS-induced IL-1b levels in PBMC. Kind of experiment: LPS-induced IL-1β production in PBMC (ELISA). Conditions: 1 μM MTX alone, 72 hours, 10 ng/mL LPS. How it is done:
as §1, §2

For the compound `CN(Cc1cnc2nc(N)nc(N)c2n1)c1ccc(C(=O)N[C@@H](CCC(=O)O)C(=O)O)cc1` [MTX, methotrexate hydrate], the cytotoxicity at 10 µM in experiment [1] was approximately 15%. For the same compound, the “reduction of LPS-induced TNF levels” value in experiment [2] is reported as approximately 20%. Moreover, the “reduction of LPS-induced IL-1b levels” value in experiment [3] is listed as approximately 20%.
